Results on 31 molecules are retold here after patent US9102688B2, “Sulfonaminoquinoline hepcidin antagonists” (Vifor (International) AG, priority 2011, dated 2015).

This test concerns the target T1, human ferroportin (Homo sapiens, UniProt Q9NP59).
T1 construct: expressed in transfected cells
T1 sequence (Q9NP59 1-571): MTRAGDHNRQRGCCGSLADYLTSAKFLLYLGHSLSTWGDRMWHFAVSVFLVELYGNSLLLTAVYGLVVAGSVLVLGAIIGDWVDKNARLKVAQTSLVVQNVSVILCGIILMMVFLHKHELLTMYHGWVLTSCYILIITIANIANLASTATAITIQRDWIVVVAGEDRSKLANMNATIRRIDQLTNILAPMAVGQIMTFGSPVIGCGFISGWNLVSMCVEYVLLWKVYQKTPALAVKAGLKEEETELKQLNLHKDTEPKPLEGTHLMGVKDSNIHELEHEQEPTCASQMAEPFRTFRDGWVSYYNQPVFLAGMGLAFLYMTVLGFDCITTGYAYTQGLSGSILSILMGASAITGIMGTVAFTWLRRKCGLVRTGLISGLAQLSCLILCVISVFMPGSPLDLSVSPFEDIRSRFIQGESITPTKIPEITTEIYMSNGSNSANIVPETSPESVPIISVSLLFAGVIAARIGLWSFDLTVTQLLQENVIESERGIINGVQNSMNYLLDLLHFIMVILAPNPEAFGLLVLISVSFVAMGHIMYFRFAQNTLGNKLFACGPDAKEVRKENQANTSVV
The test can be described thus: ferroportin internalization assay (inhibition of hepcidin-induced internalization of Fpn). The conditions noted are these: MDCK-FPN-HaloTag cells, 100 nM hepcidin, overnight incubation; concentration range from 0.04 to 40 μM. The class given is cell-based. The gist of the method: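 MDCK cells stably expressing human ferroportin–HaloTag were labelled with TMR ligand, then incubated overnight at 37 °C with compound plus 100 nM hepcidin (final). After fixation and nuclear staining, confocal imaging quantified membrane Fpn fluorescence to measure blocking of hepcidin-induced internalization.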
`O=S1(=O)Nc2c(cc(Cl)c3cccnc23)-c2cc(N3CCC(O)CC3)ccc21` [Example 504, 1-(12-Chloro-6,6-dioxo-5,6-dihydro-6λ*6*-thia-4,5-diaza-chrysen-9-yl)-piperidin-4-ol]: half-maximal inhibition (IC50) required 1100 nM.
The result for `CCN(CC)c1ccc2c(c1)-c1cc(Cl)c3cccnc3c1NS2(=O)=O` [Example 505, (12-Chloro-6,6-dioxo-5,6-dihydro-6λ*6*-thia-4,5-diaza-chrysen-9-yl)-diethyl-amine] reads 2190 nM.
In the case of `O=S1(=O)Nc2c(ccc3cccnc23)-c2cc(N3CCC(O)C3)ccc21` (stereo not shown) [Example 506, 1-(6,6-Dioxo-5,6-dihydro-6λ*6*-thia-4,5-diaza-chrysen-9-yl)-pyrrolidin-3-ol] it was 2010 nM; in that of `COCCNc1ccc2c(c1)-c1cc(Cl)c3cccnc3c1NS2(=O)=O` [Example 507, (12-Chloro-6,6-dioxo-5,6-dihydro-6λ*6*-thia-4,5-diaza-chrysen-9-yl)-(2-methoxy-ethyl)-amine], 1980 nM.
`O=S1(=O)Nc2c(cc(Cl)c3cccnc23)-c2cc(N3CCOCC3)ccc21` [Example 509, 12-Chloro-9-morpholin-4-yl-5H-6-thia-4,5-diaza-chrysene 6,6-dioxide] returned an IC50 of 1620 nM.
In the case of `O=S1(=O)Nc2c(cc(Cl)c3cccnc23)-c2cc(NCCN3CCOCC3)ccc21` [Example 511, (12-Chloro-6,6-dioxo-5,6-dihydro-6λ*6*-thia-4,5-diaza-chrysen-9-yl)-(2-morpholin-4-yl-ethyl)-amine], the IC50 worked out at 620 nM.
In the case of `O=S1(=O)Nc2c(cc(Cl)c3cccnc23)-c2cc(NC(CO)CO)ccc21` [Example 512, 2-(12-Chloro-6,6-dioxo-5,6-dihydro-6λ*6*-thia-4,5-diaza-chrysen-9-ylamino)-propane-1,3-diol], half-maximal inhibition (IC50) required 13400 nM.
The result for `O=S1(=O)Nc2c(cc(Cl)c3cccnc23)-c2cc(OC3CCCC3)ccc21` [Example 514, 12-Chloro-9-cyclopentyloxy-5H-6-thia-4,5-diaza-chrysene 6,6-dioxide] reads 420 nM; that for `Nc1ccc2c(c1)-c1cc(Cl)c3cccnc3c1NS2(=O)=O` [Example 519, 12-Chloro-6,6-dioxo-5,6-dihydro-6λ*6*-thia-4,5-diaza-chrysen-9-ylamine], 3570 nM; that for `CNC(=O)c1ccc2c(c1)-c1ccc3cccnc3c1NS2(=O)=O` [Example 522, 6,6-Dioxo-5,6-dihydro-6λ*6*-thia-4,5-diaza-chrysene-9-carboxylic acid methylamide], 13200 nM.
In the case of `CN(C)C(=O)c1ccc2c(c1)-c1cc(Cl)c3cccnc3c1NS2(=O)=O` [Example 525, 12-Chloro-6,6-dioxo-5,6-dihydro-6λ*6*-thia-4,5-diaza-chrysene-9-carboxylic acid dimethylamide] it was 4060 nM; in that of `O=C(c1ccc2c(c1)-c1cc(Cl)c3cccnc3c1NS2(=O)=O)N1CCOCC1` [Example 527, (12-Chloro-6,6-dioxo-5,6-dihydro-6λ*6*-thia-4,5-diaza-chrysen-9-yl)-morpholin-4-yl-methanone], 2740 nM.
The result for `COCCNC(=O)c1ccc2c(c1)-c1cc(Cl)c3cccnc3c1NS2(=O)=O` [Example 528, 12-Chloro-6,6-dioxo-5,6-dihydro-6λ*6*-thia-4,5-diaza-chrysene-9-carboxylic acid (2-methoxy-ethyl)-amide] reads 3900 nM; that for `O=C(c1ccc2c(c1)-c1cc(Cl)c3cccnc3c1NS2(=O)=O)N1CCC(O)C1` (stereo not shown) [Example 531, (12-Chloro-6,6-dioxo-5,6-dihydro-6λ*6*-thia-4,5-diaza-chrysen-9-yl)-(3-hydroxy-pyrrolidin-1-yl)-methanone], 15000 nM; that for `O=C(OC1CCCC1)c1ccc2c(c1)-c1cc(Cl)c3cccnc3c1NS2(=O)=O` [Example 533, 12-Chloro-6,6-dioxo-5,6-dihydro-6λ*6*-thia-4,5-diaza-chrysene-9-carboxylic acid cyclopentyl ester], 990 nM.
`CNC(=O)c1ccnc2c(NS(=O)(=O)c3ccccc3)cccc12` [Example 538, 8-Benzenesulfonylamino-quinoline-4-carboxylic acid methylamide] displayed a 50% inhibitory concentration (IC50) of 6240 nM. This IC50 lies about 6.3-fold higher than the previous one.
The result for `NC(=O)c1ccnc2c(NS(=O)(=O)c3ccccc3)cccc12` [Example 539, 8-Benzenesulfonylamino-quinoline-4-carboxylic acid amide] reads 10400 nM.
Consider `CN(C)C(=O)c1ccnc2c3c(ccc12)-c1ccccc1S(=O)(=O)N3` [Example 541, 6,6-Dioxo-5,6-dihydro-6λ*6*-thia-4,5-diaza-chrysene-1-carboxylic acid dimethylamide], for which it took 21000 nM to reach half-maximal inhibition (IC50).
In the case of `CNC(=O)c1ccnc2c3c(ccc12)-c1ccccc1S(=O)(=O)N3` [Example 542, 6,6-Dioxo-5,6-dihydro-6λ*6*-thia-4,5-diaza-chrysene-1-carboxylic acid methylamide] it was 4770 nM; in that of `O=C(NCCN1CCCCC1)c1ccnc2c3c(ccc12)-c1ccccc1S(=O)(=O)N3` [Example 544, 6,6-Dioxo-5,6-dihydro-6λ*6*-thia-4,5-diaza-chrysene-1-carboxylic acid (2-piperidin-1-yl-ethyl)-amide], 2000 nM.
In the case of `O=S1(=O)Nc2c(cc(Br)c3cccnc23)-c2ccccc21` [Example 545, 12-Bromo-5H-6-thia-4,5-diaza-chrysene 6,6-dioxide] it was 12600 nM.
With `CN(C)CCNc1cc2c(c3ncccc13)NS(=O)(=O)c1ccccc1-2` [Example 546, N′-(6,6-Dioxo-5,6-dihydro-6λ*6*-thia-4,5-diaza-chrysen-12-yl)-N,N-dimethyl-ethane-1,2-diamine], the IC50 worked out at 9980 nM.
`O=S1(=O)Nc2c(cc(NCCN3CCOCC3)c3cccnc23)-c2ccccc21` [Example 547, (6,6-Dioxo-5,6-dihydro-6λ*6*-thia-4,5-diaza-chrysen-12-yl)-(2-morpholin-4-yl-ethyl)-amine] gave an IC50 of 22000 nM.
In the case of `COCCNc1cc2c(c3ncccc13)NS(=O)(=O)c1ccccc1-2` [Example 548, (6,6-Dioxo-5,6-dihydro-6λ*6*-thia-4,5-diaza-chrysen-12-yl)-(2-methoxy-ethyl)-amine] it was 2830 nM.
The molecule `O=S1(=O)Nc2c(cc(N3CCOCC3)c3cccnc23)-c2ccccc21` [Example 549, 12-Morpholin-4-yl-5H-6-thia-4,5-diaza-chrysene 6,6-dioxide] registered an IC50 of 1140 nM.
The result for `O=S1(=O)Nc2c(cc(N3CCCCC3)c3cccnc23)-c2ccccc21` [Example 551, 12-Piperidin-1-yl-5H-6-thia-4,5-diaza-chrysene 6,6-dioxide] reads 1560 nM.
`CN(C)CCN(C)c1cc2c(c3ncccc13)NS(=O)(=O)c1ccccc1-2` [Example 552, N-(6,6-Dioxo-5,6-dihydro-6λ*6*-thia-4,5-diaza-chrysen-12-yl)-N,N′,N′-trimethyl-ethane-1,2-diamine] yielded an IC50 of 5000 nM.
Turning to `O=S1(=O)Nc2c(cc(N3CCCC3)c3cccnc23)-c2ccccc21` [Example 553, 12-Pyrrolidin-1-yl-5H-6-thia-4,5-diaza-chrysene 6,6-dioxide], the IC50 was determined as 4360 nM.
The result for `COCCN(C)c1cc2c(c3ncccc13)NS(=O)(=O)c1ccccc1-2` [Example 554, (6,6-Dioxo-5,6-dihydro-6λ*6*-thia-4,5-diaza-chrysen-12-yl)-(2-methoxy-ethyl)-methyl-amine] reads 550 nM.
The result for `CN(C)CCOc1cc2c(c3ncccc13)NS(=O)(=O)c1ccccc1-2` [Example 562, [2-(6,6-Dioxo-5,6-dihydro-6λ*6*-thia-4,5-diaza-chrysen-12-yloxy)-ethyl]-dimethyl-amine] reads 2760 nM.
In the case of `COc1cc2c(c3ncccc13)NS(=O)(=O)c1ccc(C(F)(F)F)cc1-2` [Example 589, 12-Methoxy-9-trifluoromethyl-5H-6-thia-4,5-diaza-chrysene 6,6-dioxide] it was 960 nM.
